Experimental data reported in ChEMBL document CHEMBL1201862, “PubChem BioAssay data set” (2004).
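Cells were grown in 96-well plates and exposed to each compound for 48 hours at five concentrations; endpoints were interpolated linearly between bracketing concentrations, or set to the highest concentration if not reached. The concentration for 50% growth inhibition is given as GI50.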 Activity calls are given as the source filed them. No stated cut-off is given here; in the data, active = GI50 up to about 1.1 µM and inactive = higher.

Key:
Test in all cases: DTP human tumour cell line panel, 48 h
786-0 = system: 786-0
A498 = system: A498
A549 = system: A549
HOP-62 = system: HOP-62
HT-29 = system: HT-29
M14 = system: M14
MDA-MB-435 = system: MDA-MB-435
NCI-H23 = system: NCI-H23
OVCAR-5 = system: OVCAR-5
RPMI-8226 = system: RPMI-8226
RXF 393 = system: RXF 393
SF-268 = system: SF-268
SF-295 = system: SF-295
SK-MEL-28 = system: SK-MEL-28
SK-MEL-5 = system: SK-MEL-5
SW-620 = system: SW-620
T47D = system: T47D
U-251 = system: U-251
UACC-62 = system: UACC-62
CCRF-CEM = system: CCRF-CEM

Measured: GI50

O=C(O)CC(Sc1ccccc1)c1ccccc1 (stereo not given)
inactive: 786-0 > 100 µM | A498 > 100 µM | A549 > 100 µM | HOP-62 > 100 µM | HT-29 > 100 µM | M14 > 100 µM | MDA-MB-435 > 100 µM | NCI-H23 > 100 µM | OVCAR-5 > 100 µM | RPMI-8226 > 100 µM | RXF 393 > 100 µM | SF-268 > 100 µM | SF-295 > 100 µM | SK-MEL-28 > 100 µM | SK-MEL-5 > 100 µM | SW-620 > 100 µM | T47D > 100 µM | U-251 > 100 µM | UACC-62 > 100 µM

CCOC(=O)c1ccc(NCC#CCN2CCCCC2)cc1
inactive: 786-0 > 100 µM | A498 > 100 µM | A549 > 100 µM | CCRF-CEM 19.7 µM | HOP-62 > 100 µM | HT-29 > 100 µM | M14 59.2 µM | MDA-MB-435 > 100 µM | NCI-H23 > 100 µM | OVCAR-5 83.6 µM | RPMI-8226 > 100 µM | RXF 393 > 100 µM | SF-268 > 100 µM | SK-MEL-28 > 100 µM | SK-MEL-5 38.5 µM | SW-620 > 100 µM | T47D > 100 µM | U-251 > 100 µM | UACC-62 50.1 µM

CCC(CN(C)C)C(=O)c1ccco1 (stereo not given)
inactive: 786-0 > 100 µM | A498 > 100 µM | A549 > 100 µM | HOP-62 > 100 µM | HT-29 > 100 µM | M14 > 100 µM | MDA-MB-435 > 100 µM | NCI-H23 > 100 µM | OVCAR-5 > 100 µM | RPMI-8226 68.5 µM | RXF 393 > 100 µM | SF-268 54.8 µM | SF-295 > 100 µM | SK-MEL-28 > 100 µM | SW-620 > 100 µM | T47D > 100 µM | U-251 > 100 µM | UACC-62 > 100 µM

CC[C@@H]1CC[C@@H]2[C@H](CC[C@]3(C)[C@@H](OS(=O)(=O)c4ccc(C)cc4)CC[C@@H]23)[C@H]1CO
inactive: 786-0 > 100 µM | A498 > 100 µM | A549 > 100 µM | CCRF-CEM > 100 µM | HOP-62 > 100 µM | HT-29 27.3 µM | M14 87.3 µM | MDA-MB-435 > 100 µM | NCI-H23 > 100 µM | OVCAR-5 > 100 µM | RPMI-8226 17 µM | RXF 393 > 100 µM | SF-268 > 100 µM | SF-295 > 100 µM | SK-MEL-28 > 100 µM | SK-MEL-5 42.6 µM | SW-620 > 100 µM | T47D 29.2 µM | U-251 > 100 µM

COC(=O)C1(Cc2ccc3c(c2)CCC3)Cc2ccc3c(c2C1)CCC3 (stereo not given)
inactive: 786-0 24.5 µM | A498 22.3 µM | A549 27.4 µM | CCRF-CEM 70.6 µM | HOP-62 30.1 µM | HT-29 14.9 µM | MDA-MB-435 12.7 µM | NCI-H23 1.48 µM | RPMI-8226 19.4 µM | RXF 393 24 µM | SF-268 44.4 µM | SF-295 20.7 µM | SK-MEL-28 23.9 µM | SK-MEL-5 16.6 µM | SW-620 25.2 µM | T47D 1.47 µM | U-251 17.3 µM | UACC-62 32 µM

CCOC(=O)CCC(NC(=O)c1ccc(OCc2nc3ccccc3n3cccc23)cc1)C(=O)OCC (stereo not given)
inactive: 786-0 74.3 µM | A498 > 100 µM | A549 > 100 µM | CCRF-CEM 4.34 µM | HOP-62 38 µM | HT-29 25.5 µM | M14 63.2 µM | MDA-MB-435 80.4 µM | NCI-H23 29.9 µM | OVCAR-5 > 100 µM | RXF 393 36.6 µM | SF-268 49.3 µM | SF-295 64.3 µM | SK-MEL-28 > 100 µM | SK-MEL-5 93.3 µM | SW-620 11.6 µM | T47D 20 µM | U-251 17.3 µM | UACC-62 > 100 µM

c1coc(-c2nccc3c2[nH]c2ccccc23)c1
inactive: 786-0 > 100 µM | A498 > 100 µM | A549 > 100 µM | CCRF-CEM > 100 µM | HOP-62 > 100 µM | HT-29 > 100 µM | M14 > 100 µM | MDA-MB-435 > 100 µM | NCI-H23 > 100 µM | OVCAR-5 > 100 µM | RXF 393 > 100 µM | SF-268 > 100 µM | SF-295 > 100 µM | SK-MEL-28 > 100 µM | SK-MEL-5 > 100 µM | SW-620 > 100 µM | T47D > 100 µM | U-251 > 100 µM | UACC-62 > 100 µM

O=C1c2ccccc2C(=O)C2NC(CCCCCSSCCCCCC3=NC4C(=O)c5ccccc5C(=O)C4N3)=NC12 (stereo not given)
inactive: 786-0 28.8 µM | A498 23.7 µM | CCRF-CEM > 100 µM | HOP-62 > 100 µM | HT-29 > 100 µM | M14 4.57 µM | MDA-MB-435 > 100 µM | NCI-H23 40.2 µM | OVCAR-5 > 100 µM | RPMI-8226 > 100 µM | RXF 393 22.3 µM | SF-268 27.3 µM | SF-295 4.57 µM | SK-MEL-28 > 100 µM | SK-MEL-5 19.9 µM | SW-620 90.8 µM | T47D > 100 µM | U-251 17.6 µM

COc1ccccc1N1C(=O)/C(=C\c2cccc(Oc3ccccc3)c2)SC1c1ccccc1 (stereo not given)
inactive: 786-0 39.2 µM | A498 > 100 µM | A549 34.3 µM | HOP-62 73.3 µM | HT-29 32.4 µM | M14 24.4 µM | MDA-MB-435 28.6 µM | NCI-H23 18.3 µM | OVCAR-5 > 100 µM | RPMI-8226 24.6 µM | RXF 393 56.9 µM | SF-268 38 µM | SF-295 18.7 µM | SK-MEL-28 46.9 µM | SK-MEL-5 14.4 µM | SW-620 17.8 µM | T47D 27.2 µM | U-251 38.4 µM | UACC-62 5.75 µM

CC1CCC2(CC1)N=C1CCC(C)CC1C1(CCC(C)CC1)N2 (stereo not given)
inactive: 786-0 > 100 µM | A498 > 100 µM | A549 > 100 µM | CCRF-CEM 24.3 µM | HT-29 86.7 µM | M14 > 100 µM | MDA-MB-435 > 100 µM | NCI-H23 95.7 µM | OVCAR-5 > 100 µM | RPMI-8226 82 µM | RXF 393 > 100 µM | SF-295 > 100 µM | SK-MEL-28 > 100 µM | SK-MEL-5 29.7 µM | SW-620 79.3 µM | T47D 67.3 µM | U-251 78.7 µM | UACC-62 > 100 µM

CC(C)CC1c2[nH]c3ccccc3c2C[C@H]2C(=O)NC(COC(C)(C)C)C(=O)N12 (stereo not given in full)
inactive: 786-0 32.8 µM | A498 30.3 µM | A549 31.9 µM | HOP-62 46.2 µM | HT-29 20.9 µM | M14 20.8 µM | MDA-MB-435 20.5 µM | NCI-H23 28.7 µM | OVCAR-5 23.6 µM | RPMI-8226 23.9 µM | RXF 393 14.7 µM | SF-268 23.6 µM | SF-295 17.3 µM | SK-MEL-28 31.5 µM | SK-MEL-5 21.8 µM | SW-620 31 µM | T47D 13.2 µM | U-251 20.4 µM | UACC-62 18.2 µM
